Measurements reported in patent US20210145806A1, “Methods of Treating Brain Cancer and Related Diagnostic Methods” (Emory University, priority 2019, published 2021).
Entries after “also recorded” stand apart in the source; their conditions may differ. Read-outs that look alike come from different tables or passages of the source.

Tests used:
[1] = tested on: SmoA1 murine SHH-activated MB organotypic slice culture; test: Murine MB organotypic slice culture (OSC), cell death by cleaved caspase 3 staining; settings: 24 h treatment; for cell death (CC3 staining), result in words: relative to vehicle control; for concentration giving significant increase in cell death (CC3 standardized to DAPI): compared to control
[2] = tested on: MB tumor stem-like cells (nestin-positive) in SmoA1 OSCs; test: SmoA1 OSC, CC3 and nestin co-staining (death of tumor stem-like cells); assay type: cell-based, mouse
Description: DAPI=nuclear stain, DMSO=vehicle. Treatment of human MB cells and SmoA1 OSCs with WP1066 in combination with fisetin further enhances the inhibition of cell proliferation in vitro induction of tumor cell death diffusely ex vivo, but synergistically kills the tumor stem-like cell population specifically.
Given that STA 3 and YB-1 expression colocalized to the cancer stem cell-like cells of the perivascular niche environment, experiments were performed to determine whether combined treatment with these inhibitors, fisetin and WPHH66, leads: to increased tumor cell and/or tumor stem cell like cell death. The effect of combination treatment was evaluated in the in vitro proliferation and colony formation assays. […] Next, experiments were performed to determine whether this effect was more pronounced in the stem cell compartment, where YB-1 and STAT3 are most highly expressed. SmoA1 MB ex vivo brain slices were treated with WP1066, fisetin, or combined treatment thereof. The slices were immunostained for the tumor stem-like cell marker nestin and the cell death marker CC3 to quantify the amount of cell death in the tumor stem-like cells.

[3] = tested on: patient-derived non-WNT/SHH MB OSC; test: Patient-derived MB OSC, cell death by CC3 staining; assay type: cell-based, human; settings: relative to vehicle controls
Description: Ex vivo, cultures can be used to evaluate drug effects on murine MB tumor cells in their microenvironment. Experiments were performed to determine whether OSC could be used as a “precision medicine” technique in medulloblastoma, e.g., whether biopsy sample from either a newly diagnosed or relapsed medulloblastoma patient could be directly obtained in the operating room, transferred to the lab, and OSCs generated and tested per the protocol, with readout of the efficacy of potential treatments within 3 days. After obtaining fresh tumor tissue from a newly diagnosed patient with a cerebellar tumor, an OSC assay using this patient-derived medulloblastoma specimen was performed. Four tumor slices were treated with vehicle (DMSO or PBS) and 6 tumor slices were treated with WP1066, fisetin, and cisplatin as positive control. […] Therefore this assay can be used at the time of diagnosis, indicating the feasibility of OSC for use in a personalized medicine based testing approach (FIG. 5C) in pediatric brain tumors. Later the neuropathology report confirmed isochromosome 17q in the specimen without MYC or MYCN amplification consistent with a non-WNT/SHH MB.

[4] = tested on: Group 3-like D556 MB cells; test: Proliferation of Group 3-like MB cells
[5] = Homo sapiens, read-out: IC50, inhibition of proliferation, D556

With `Nc1nc(=S)c2[nH]cnc2[nH]1` [6-thioguinine] the “cell death (CC3 staining), result in words” value (shortened to “cell death (CC3 staining)”) [1] was “minimal increase in cell death”.

`CS(=O)(=O)OCCCCOS(C)(=O)=O` [Busulfan] was tested, and the “cell death (CC3 staining)” value [1] was “minimal increase in cell death”.

`CC(NC(=O)C(C#N)=Cc1cccc(Br)n1)c1ccccc1` (stereo not shown) [WP1066, 3-(6-bromopyridin-2-yl)-2-cyano-N-(1-phenylethyl)acrylamide] was tested, and the “concentration giving significant increase in cell death (CC3 standardized to DAPI)” value [1] was “greater than 1.5 μM”, the “cell death (CC3 staining)” value [1] was “significantly increased cell death; also recorded: induces marked tumor cell death; also recorded: dose-dependent increase in cell death” and the “percentage of CC3/nestin-positive cells (dead nestin-positive cells)” value [2] was 1.4%. For the same compound, the “cell death (CC3 staining)” value [3] was “induced cell death; also recorded: Increase in cell death”, the IC50 [4, 5] was 1500 nM and the IC50 ([4]; read-out: IC50, inhibition of proliferation, D556) was 1200 nM.

In the case of `N.N.[Cl][Pt][Cl]` [cisplatin], the “concentration giving significant increase in cell death (CC3 standardized to DAPI)” value [1] is reported as 2 µM and the “cell death (CC3 staining)” value [3] is reported as “Increase in cell death”.

With `O=c1c(O)c(-c2ccc(O)c(O)c2)oc2cc(O)ccc12` [fisetin, 2-(3,4-dihydroxyphenyl)-3,7-dihydroxy-4H-chromen-4-one] the “concentration giving significant increase in cell death (CC3 standardized to DAPI)” value [1] was over 4 µM, the “cell death (CC3 staining)” value [1] was “induces marked tumor cell death; also recorded: dose-dependent increase in cell death” and the “percentage of CC3/nestin-positive cells (dead nestin-positive cells)” value [2] was 1.6%. For the same compound, the “cell death (CC3 staining)” value [3] was “Increase in cell death”, the “cell death (CC3 staining)” value ([3]; listed as Fisetin) was “induced cell death” and the IC50 [4, 5] was 3600 nM.
